# Results from PMC10945501, “Development and In Vivo Evaluation of Small-Molecule Ligands for Positron Emission Tomography of Immune Checkpoint Modulation Targeting Programmed Cell Death 1 Ligand 1” (Journal of Medicinal Chemistry, 2024).
# Assays:
# PD-L1 = settings: literature IC50 as stated in the original patent; read-out: Lit. IC50; cited from earlier work
# [1] = Lipophilicity by HPLC method (μHPLC logD); settings: for μHPLC logD: pH 7.4; for chromatographic logD: pH 7.4, μHPLC logD
# human PD-L1 = target: T1, human PD-L1 (Homo sapiens, UniProt Q9NZQ7); experiment: HTRF PD-1/PD-L1 binding assay (cell-free); settings: for IC50: cell-free competitive PD-1/PD-L1 HTRF, mean ± SD, read-out: IC50 (hPD-L1 binding affinity, HTRF); for fold decrease in affinity by fluoroethylation / fluoroethyl carbamylation at R3*: pairs 4f vs 5h, 4j vs 5j
# T1 construct: purchased Cisbio Bioassays SAS, Codolet, France 64PD1PEG
# T1 sequence (Q9NZQ7 19-238 limits assumed): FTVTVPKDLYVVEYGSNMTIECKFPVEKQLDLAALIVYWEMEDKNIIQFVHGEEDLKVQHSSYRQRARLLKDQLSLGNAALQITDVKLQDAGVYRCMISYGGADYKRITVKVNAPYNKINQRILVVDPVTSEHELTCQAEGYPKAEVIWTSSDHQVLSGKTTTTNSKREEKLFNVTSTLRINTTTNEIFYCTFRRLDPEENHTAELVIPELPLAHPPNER
smiles,measurement,setting,value
Cc1c(COc2cc(CNC[C@@H](O)C(=O)O)ccc2C(F)(F)F)cccc1-c1ccc2c(c1)OCCO2 [BMS-114],IC50,PD-L1,0.043 µM
Cc1c(COc2ccc(CN[C@H](CO)C(=O)O)c(OCc3cccc(C#N)c3)c2)cccc1-c1ccccc1 [BMS-1016],IC50,PD-L1,0.00455 µM
CC(=O)NCCNCc1ccc(OCc2cccc(-c3ccccc3)c2C)cc1OCc1ccc(C(=O)O)cc1 [BMS-1043],IC50,PD-L1,0.239 µM
CC(=O)NCCNCc1ccc(OCc2cccc(-c3ccccc3)c2C)cc1OCc1ccccc1[N+](=O)[O-] [BMS-1057],IC50,PD-L1,0.986 µM
CC(=O)NCCNCc1ccc(OCc2cccc(-c3ccccc3)c2C)cc1OCc1cccc(OC(F)(F)F)c1 [BMS-1082],IC50,PD-L1,0.828 µM
CC(=O)NCCNCc1ccc(OCc2cccc(-c3ccccc3)c2C)cc1OCc1cc(C#N)ccc1F [BMS-1095],IC50,PD-L1,0.0813 µM
CC(=O)NCCNCc1ccc(OCc2cccc(-c3ccccc3)c2C)cc1OCc1ccc(F)c(C)c1 [BMS-1108],IC50,PD-L1,0.624 µM
CC(=O)NCCNCc1ccc(Oc2cccc(-c3ccccc3)c2C)cc1OCc1cccc(NC(=O)OC(C)(C)C)c1 [BMS-1119],IC50,PD-L1,14.2 µM
Cc1c(COc2cc(OCc3cccc(C#N)c3)c(CN[C@H](CCO)C(=O)O)cc2Cl)cccc1-c1ccc2c(c1)OCCO2 [BMS-1205],IC50,PD-L1,0.00271 µM
Cc1c(COc2cc(OCc3cccc(C#N)c3)c(CNC(C(=O)O)C(C)(C)O)cc2Cl)cccc1-c1ccc2c(c1)OCCO2 (stereo not drawn) [BMS-1210],IC50,PD-L1,0.0127 µM
Cc1c(COc2cc(OCc3cccc(C#N)c3)c(CNC(CO)(Cc3ccccc3)C(=O)O)cc2Cl)cccc1-c1ccc2c(c1)OCCO2 (stereo not drawn) [BMS-1218],IC50,PD-L1,0.0101 µM
Cc1c(COc2cc(OCc3cccc(C#N)c3)c(CNC3(C(=O)O)CCN(C)CC3)cc2Cl)cccc1-c1ccc2c(c1)OCCO2 [BMS-1220],IC50,PD-L1,0.00607 µM
"Cc1c(COc2cc(OCc3ccnc(C#N)c3)c(CN(C)CCO)cc2Cl)cccc1-n1cccc1 [Compound 5f, 4-((4-Chloro-2-(((2-hydroxyethyl)(methyl)amino)methyl)-5-((2-methyl-3-(1H-pyrrol-1-yl)benzyl)oxy)phenoxy)methyl)picolinonitrile]",μHPLC logD,[1],4.5 ± 0.2
same,chromatographic logD,[1],4.54 ± 0.21
same,"fold reduction of affinity, pyrrole at R1 vs 1,4-benzodioxanyl analogue","human PD-L1; IC50 ratio, pairs 4c vs 4m, 4e vs 4n, 4f vs 4o, 5c vs 5f",1.61 fold
same,IC50,human PD-L1,0.016 ± 0.004 µM
"Cc1c(COc2cc(OCc3ccnc(C#N)c3)c(CN3CCOC3CF)cc2Cl)cccc1-c1ccc2c(c1)OCCO2 (stereo not drawn) [Compound 5g, 4-((4-Chloro-5-((3-(2,3-dihydrobenzo[b][1,4]dioxin-6-yl)-2-methylbenzyl)oxy)-2-((2-(fluoromethyl)oxazolidin-3-yl)methyl)phenoxy)methyl)picolinonitrile]",chromatographic logD,[1],> 5.75
same,IC50,human PD-L1,0.012 ± 0.002 µM
"Cc1c(COc2cc(OCc3ccnc(C#N)c3)c(CN3CCCC[C@H]3C(=O)OCCF)cc2Cl)cccc1-c1ccc2c(c1)OCCO2 [Compound 5h, 2-Fluoroethyl (S)-1-(5-Chloro-2-((2-cyanopyridin-4-yl)methoxy)-4-((3-(2,3-dihydrobenzo[b][1,4]dioxin-6-yl)-2-methylbenzyl)oxy)benzyl)piperidine-2-carboxylate]",chromatographic logD,[1],> 5.75
same,fold decrease in affinity by fluoroethylation / fluoroethyl carbamylation at R3*,human PD-L1; IC50 ratio,265 fold
same,IC50,human PD-L1,1.29 µM
"Cc1c(COc2cc(OCc3ccnc(C#N)c3)c(CNCCF)cc2Cl)cccc1-c1ccc2c(c1)OCCO2 [Compound 5i, 4-((4-Chloro-5-((3-(2,3-dihydrobenzo[b][1,4]dioxin-6-yl)-2-methylbenzyl)oxy)-2-(((2-fluoroethyl)amino)methyl)phenoxy)methyl)picolinonitrile]",μHPLC logD,[1],5.2 ± 0.3
same,chromatographic logD,[1],5.21 ± 0.31
same,IC50,human PD-L1,0.012 ± 0.001 µM
"CC(=O)NCCN(Cc1cc(Cl)c(OCc2cccc(-c3ccc4c(c3)OCCO4)c2C)cc1OCc1cccc(C#N)c1)C(=O)OCCF [Compound 5j, 2-Fluoroethyl (2-acetamidoethyl)(5-chloro-2-((3-cyanobenzyl)oxy)-4-((3-(2,3-dihydrobenzo[b][1,4]dioxin-6-yl)-2-methylbenzyl)oxy)benzyl)carbamate]",chromatographic logD,[1],4.9 ± 0.3
same,fold decrease in affinity by fluoroethylation / fluoroethyl carbamylation at R3*,human PD-L1; IC50 ratio,160 fold
same,IC50,human PD-L1,1.7 µM
